Data on 14 compounds can be found in ChEMBL document CHEMBL1135604, “Geometry-affinity relationships of the selective serotonin receptor ligand 9-(aminomethyl)-9,10-dihydroanthracene” (J Med Chem, 2002).

In this assay the target is 5-hydroxytryptamine receptor 2A (Rattus norvegicus) (UniProt P14842). As to the kind of experiment: Binding affinity was performed using [3H]ketanserin as the radioligand and stably transfected NIH3T3 cells expressing the 5-hydroxytryptamine 2A receptor (GF-62 cells).
Sequence of 5-hydroxytryptamine receptor 2A (Rattus norvegicus) (P14842 whole entry, looked up): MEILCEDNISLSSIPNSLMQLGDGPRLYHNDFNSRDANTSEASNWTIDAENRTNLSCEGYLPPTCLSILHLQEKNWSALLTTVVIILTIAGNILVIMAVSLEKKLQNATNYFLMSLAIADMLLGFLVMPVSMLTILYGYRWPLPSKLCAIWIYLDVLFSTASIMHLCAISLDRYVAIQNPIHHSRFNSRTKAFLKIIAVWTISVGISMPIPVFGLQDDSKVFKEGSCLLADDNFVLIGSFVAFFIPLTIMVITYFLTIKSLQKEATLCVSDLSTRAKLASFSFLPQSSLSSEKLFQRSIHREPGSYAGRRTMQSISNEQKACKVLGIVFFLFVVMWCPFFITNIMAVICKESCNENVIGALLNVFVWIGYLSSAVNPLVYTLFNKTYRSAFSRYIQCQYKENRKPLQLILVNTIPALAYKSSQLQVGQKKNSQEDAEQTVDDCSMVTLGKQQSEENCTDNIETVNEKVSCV
By Ki is commonly meant a measure of affinity in units of concentration, obtained from inhibition or displacement. On to `c1ccc2c(c1)Cc1cccc3c1C2CNC3` (centres undefined), for which the affinity, expressed as Ki, was 296 nM.

On to `NCC1CC2c3ccccc3C1c1ccccc12` (centres undefined), for which affinity was put at a Ki of 9530 nM. For `CC1(C)c2ccccc2C(CN)c2ccccc21` the value was 330 nM; for `CC1(CN)c2ccccc2Cc2ccccc21`, 65 nM; for `NC1CC2c3ccccc3C1c1ccccc12` (centres undefined), over 10000 nM.

For `NCC1CCCc2ccccc21` (centres undefined), the Ki is over 10000 nM. For `NCCc1ccccc1Cc1ccccc1` the value was 1810 nM.

For the compound `NCC1Cc2ccccc2-c2ccccc21` (centres undefined), the inhibition constant Ki amounted to 711 nM. This Ki is about 2.5-fold lower than that of the compound before. Under `NCc1c2ccccc2cc2ccccc12` stands 2300 nM; under `NCC12CC(c3ccccc31)c1ccccc12`, 6780 nM; under `NCC1c2ccccc2CCc2ccccc21`, 112 nM. Under `CC(N)C1c2ccccc2Cc2ccccc21` (centres undefined) stands 193 nM; under `c1ccc2c(c1)C1c3ccccc3C2C2NC12` (centres undefined), over 10000 nM. For the compound `NCC12CCC(c3ccccc31)c1ccccc12`, the affinity corresponds to a Ki of 770 nM.
